This passage reports MIC results from patent US5106854A, “Quinolinecarboxylic acids” (Shionogi & Co., Ltd., priority 1988, dated 1992).

Format in all cases: cell-based
The subject of assay [1] is Staphylococcus aureus SMITH. In words: Antibacterial spectrum, minimum growth inhibitory concentration (MIC), strain A. Conditions: 10^6 cells/ml, Japan Society of Chemotherapy method. Here is the method: The antibacterial activity was determined by measuring minimum growth inhibitory concentrations (MICs) in accordance with the method designated by the Japan Society of Chemotherapy. A, B, C and D in the table indicate the following meanings: A: Staphylococcus aureus SMITH The test microorganisms were used at 10^6 cells/ml.

Assay [2] concerns Staphylococcus aureus SR 14 (R). Nature of the assay: Antibacterial spectrum, minimum growth inhibitory concentration (MIC), strain B. Conditions: 10^6 cells/ml, Japan Society of Chemotherapy method. Here is the method: The antibacterial activity was determined by measuring minimum growth inhibitory concentrations (MICs) in accordance with the method designated by the Japan Society of Chemotherapy.
A, B, C and D in the table indicate the following meanings:
B: Staphylococcus aureus SR 14 (R)
The test microorganisms were used at 10^6 cells/ml.

In assay [3] the test system is Escherichia coli EC-14. Nature of the assay: Antibacterial spectrum, minimum growth inhibitory concentration (MIC), strain C. Conditions: EC14, 10^6 cells/ml, Japan Society of Chemotherapy method. Here is the method: The antibacterial activity was determined by measuring minimum growth inhibitory concentrations (MICs) in accordance with the method designated by the Japan Society of Chemotherapy. A, B, C and D in the table indicate the following meanings: C: Escherichia coli EC-14 The test microorganisms were used at 10^6 cells/ml.

Assay [4] relates to Escherichia coli SR377 (R). In words: Antibacterial spectrum, minimum growth inhibitory concentration (MIC), strain D. Conditions: 10^6 cells/ml, Japan Society of Chemotherapy method. As to the method:
The antibacterial activity was determined by measuring minimum growth inhibitory concentrations (MICs) in accordance with the method designated by the Japan Society of Chemotherapy. A, B, C and D in the table indicate the following meanings: D: Escherichia coli SR377 (R). The test microorganisms were used at 10^6 cells/ml.

Converted amounts (≈) assume the structure as drawn. Counter-ions that a name gives are not always drawn.

On to `CO[C@H]1CN(c2c(F)c(N)c3c(=O)c(C(=O)O)cn(C4CC4)c3c2F)C[C@H]1N` (relative stereo) [Compound I-5, 1-Cyclopropyl-5-amino-6,8-difluoro-1,4-dihydro-7-(cis-3-amino-4-methoxy-1-pyrrolidinyl)-4-oxo-3-quinolinecarboxylic acid], for which the MIC (as a rule, the least concentration at which growth counts as inhibited) worked out at 0.02 µg/mL (≈ 0.0507 µM) in assay [1], 0.05 µg/mL (≈ 0.127 µM) in assay [2], 0.02 µg/mL (≈ 0.0507 µM) in assay [3] and 0.05 µg/mL (≈ 0.127 µM) in assay [4].
Consider `CN[C@@H]1CN(c2c(F)c(N)c3c(=O)c(C(=O)O)cn(C4CC4)c3c2F)C[C@@H]1OC` (relative stereo) [Compound I-11, 1-Cyclopropyl-5-amino-6,8-difluoro-1,4-dihydro-7-(cis-3-methylamino-4-methoxy-1-pyrrolidinyl)-4-oxo-3-quinolinecarboxylic acid], for which the MIC in assay [1] was determined as 0.05 µg/mL (≈ 0.122 µM); in assay [2], 0.05 µg/mL (≈ 0.122 µM); in assay [3], 0.05 µg/mL (≈ 0.122 µM); in assay [4], 0.1 µg/mL (≈ 0.245 µM).
For the compound `CN[C@H]1CN(c2c(F)c(N)c3c(=O)c(C(=O)O)cn(C4CC4)c3c2F)C[C@H]1OC` [Compound I-1, (+)-1-Cyclopropyl-5-amino-6,8-difluoro-1,4-dihydro-7-(cis-3-methylamino-4-methoxy-1-pyrrolidinyl)-4-oxo-3-quinolinecarboxylic acid hydrochloride], the MIC in assay [1] came to 0.1 µg/mL; in assay [2], 0.1 µg/mL; in assay [3], 0.1 µg/mL; in assay [4], 0.2 µg/mL.
With `CN[C@@H]1CN(c2c(F)c(N)c3c(=O)c(C(=O)O)cn(C4CC4)c3c2F)C[C@@H]1OC.Cl` [Compound I-2, (-)-1-Cyclopropyl-5-amino-6,8-difluoro-1,4-dihydro-7-(cis-3-methylamino-4-methoxy-1-pyrrolidinyl)-4-oxo-3-quinolinecarboxylic acid hydrochloride], the MIC in assay [1] was 0.05 µg/mL; in assay [2], 0.05 µg/mL; in assay [3], 0.05 µg/mL; in assay [4] it was 0.1 µg/mL.
On to `CO[C@@H]1CN(c2c(F)c(N)c3c(=O)c(C(=O)O)cn(C4CC4)c3c2F)C[C@@H]1N` [Compound I-3, (+)-1-Cyclopropyl-5-amino-6,8-difluoro-1,4-dihydro-7-(cis-3-amino-4-methoxy-1-pyrrolidinyl)-4-oxo-3-quinolinecarboxylic acid hydrochloride], for which the MIC in assay [1] came out at 0.05 µg/mL; in assay [2] it was 0.05 µg/mL; in assay [3] it was 0.02 µg/mL; in assay [4] it was 0.1 µg/mL.
As to `CO[C@H]1CN(c2c(F)c(N)c3c(=O)c(C(=O)O)cn(C4CC4)c3c2F)C[C@H]1N` [Compound I-4, (-)-1-Cyclopropyl-5-amino-6,8-difluoro-1,4-dihydro-7-(cis-3-amino-4-methoxy-1-pyrrolidinyl)-4-oxo-3-quinolinecarbxylic acid hydrochloride], the MIC in assay [1] is 0.02 µg/mL; in assay [2] it was 0.02 µg/mL; in assay [3] it was 0.02 µg/mL; in assay [4], 0.05 µg/mL.
In the case of `CC1COc2c(N3CCN(C)CC3)c(F)cc3c(=O)c(C(=O)O)cn1c23` (stereo not shown) [OFLX, ofloxacin, reference compound], the MIC amounted to 0.2 µg/mL (≈ 0.553 µM) in assay [1], 0.4 µg/mL (≈ 1.11 µM) in assay [2], 0.1 µg/mL (≈ 0.277 µM) in assay [3] and 0.1 µg/mL (≈ 0.277 µM) in assay [4].
